Key:
Assay in all cases: biochemical
Design in all cases: KINOMEscan scanMAX active site-directed competition binding assay, percent of control, 468 kinases
Details in all cases: competition binding, percent of control
NEK11 = NEK11 (Homo sapiens, UniProt Q8NG66)
Outline: (§1)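 KINOMEscan active site-directed competition binding assay against 468 human kinases with 100 μM S-carvone. Binding expressed as % of control, with 35% of control as the inhibition threshold.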

KIT(V559D,T670I) = KIT(V559D,T670I) (Homo sapiens, UniProt P10721, T670I/V559D)
Outline: as §1

DYRK2 = DYRK2 (Homo sapiens, UniProt Q92630)
Outline: as §1

ULK3 = ULK3 (Homo sapiens, UniProt Q6PHR2)
Outline: as §1

PRKD2 = PRKD2 (Homo sapiens, UniProt Q9BZL6)
Outline: as §1

CSNK1G3 = CSNK1G3 (Homo sapiens, UniProt Q9Y6M4)
Outline: as §1

ITK = ITK (Homo sapiens, UniProt Q08881)
Outline: as §1

PLK2 = PLK2 (Homo sapiens, UniProt Q9NYY3)
Outline: as §1

ERK1 = biological target: T1, ERK1 (Homo sapiens, UniProt P27361)
T1 construct: gene MAPK3
Outline: as §1

KIT-autoinhibited = KIT-autoinhibited (Homo sapiens, UniProt P10721)
Outline: as §1

ACVR2B = ACVR2B (Homo sapiens, UniProt Q13705)
Outline: as §1

[1] = biological target: T2, RPS6KA5(Kin.Dom.1-N-terminal) (Homo sapiens, UniProt O75582)
T2 construct: Kin.Dom.1-N-terminal
Outline: as §1

FLT3(D835Y) = FLT3(D835Y) (Homo sapiens, UniProt P36888, D835Y)
Outline: as §1

CDKL5 = CDKL5 (Homo sapiens, UniProt O76039)
Outline: as §1

SGK3 = SGK3 (Homo sapiens, UniProt Q96BR1)
Outline: as §1

CSF1R-autoinhibited = CSF1R-autoinhibited (Homo sapiens, UniProt P07333)
Outline: as §1

MARK1 = MARK1 (Homo sapiens, UniProt Q9P0L2)
Outline: as §1

FAK = biological target: T3, FAK (Homo sapiens, UniProt Q05397)
T3 construct: gene PTK2
Outline: as §1

DAPK1 = DAPK1 (Homo sapiens, UniProt P53355)
Outline: as §1

PKAC-beta = biological target: T4, PKAC-beta (Homo sapiens, UniProt P22694)
T4 construct: gene PRKACB
Outline: as §1

HCK = HCK (Homo sapiens, UniProt P08631)
Outline: as §1

EGFR(T790M) = EGFR(T790M) (Homo sapiens, UniProt P00533, T790M)
Outline: as §1

Chain of KIT(V559D,T670I) (P10721 whole entry V559D/T670I): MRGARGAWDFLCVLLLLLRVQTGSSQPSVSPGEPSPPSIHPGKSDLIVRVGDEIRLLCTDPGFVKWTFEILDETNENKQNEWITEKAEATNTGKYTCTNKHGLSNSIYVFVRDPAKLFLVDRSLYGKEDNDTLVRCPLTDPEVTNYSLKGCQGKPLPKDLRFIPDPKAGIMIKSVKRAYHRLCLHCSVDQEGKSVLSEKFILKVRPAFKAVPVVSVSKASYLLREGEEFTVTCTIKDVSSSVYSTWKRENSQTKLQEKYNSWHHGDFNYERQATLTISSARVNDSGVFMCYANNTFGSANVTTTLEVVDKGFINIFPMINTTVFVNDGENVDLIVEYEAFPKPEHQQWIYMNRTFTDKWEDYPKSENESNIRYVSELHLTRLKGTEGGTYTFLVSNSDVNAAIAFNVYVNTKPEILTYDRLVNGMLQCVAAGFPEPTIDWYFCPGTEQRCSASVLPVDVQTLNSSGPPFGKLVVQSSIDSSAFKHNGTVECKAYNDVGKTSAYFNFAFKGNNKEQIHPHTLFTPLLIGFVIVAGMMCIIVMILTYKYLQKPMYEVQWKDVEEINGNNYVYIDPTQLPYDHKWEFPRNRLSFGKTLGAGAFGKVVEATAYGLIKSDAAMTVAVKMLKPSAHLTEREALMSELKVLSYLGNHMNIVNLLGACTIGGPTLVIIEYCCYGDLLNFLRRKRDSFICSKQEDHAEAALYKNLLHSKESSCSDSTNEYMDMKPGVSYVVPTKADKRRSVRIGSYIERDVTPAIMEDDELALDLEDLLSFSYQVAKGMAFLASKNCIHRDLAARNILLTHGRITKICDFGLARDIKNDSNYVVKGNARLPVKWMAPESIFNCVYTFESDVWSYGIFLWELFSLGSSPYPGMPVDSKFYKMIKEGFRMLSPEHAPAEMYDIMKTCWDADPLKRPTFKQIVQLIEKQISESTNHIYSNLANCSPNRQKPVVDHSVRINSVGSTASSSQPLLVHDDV
Chain of PRKD2 (Q9BZL6 whole entry): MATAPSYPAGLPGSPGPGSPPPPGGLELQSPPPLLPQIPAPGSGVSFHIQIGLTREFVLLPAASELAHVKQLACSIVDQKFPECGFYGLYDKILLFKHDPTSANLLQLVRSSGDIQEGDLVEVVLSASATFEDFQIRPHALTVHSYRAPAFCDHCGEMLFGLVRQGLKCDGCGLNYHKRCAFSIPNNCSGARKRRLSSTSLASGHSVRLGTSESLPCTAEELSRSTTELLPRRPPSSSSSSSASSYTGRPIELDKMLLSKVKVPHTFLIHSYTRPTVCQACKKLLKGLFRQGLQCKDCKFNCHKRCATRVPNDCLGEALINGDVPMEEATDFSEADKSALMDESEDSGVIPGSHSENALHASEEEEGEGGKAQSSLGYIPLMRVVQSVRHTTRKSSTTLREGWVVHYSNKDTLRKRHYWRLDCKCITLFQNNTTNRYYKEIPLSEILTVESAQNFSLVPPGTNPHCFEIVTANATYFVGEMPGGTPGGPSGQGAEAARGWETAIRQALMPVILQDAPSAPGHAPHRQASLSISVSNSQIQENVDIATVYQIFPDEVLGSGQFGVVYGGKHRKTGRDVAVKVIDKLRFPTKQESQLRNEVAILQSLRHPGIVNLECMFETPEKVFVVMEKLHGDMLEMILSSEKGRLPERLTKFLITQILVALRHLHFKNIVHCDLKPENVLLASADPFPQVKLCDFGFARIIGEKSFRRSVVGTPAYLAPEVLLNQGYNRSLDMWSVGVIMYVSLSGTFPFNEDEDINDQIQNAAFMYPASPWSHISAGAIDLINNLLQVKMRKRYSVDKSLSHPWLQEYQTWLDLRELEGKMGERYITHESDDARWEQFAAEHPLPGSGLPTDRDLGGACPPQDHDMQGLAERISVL
Chain of DYRK2 (Q92630 whole entry): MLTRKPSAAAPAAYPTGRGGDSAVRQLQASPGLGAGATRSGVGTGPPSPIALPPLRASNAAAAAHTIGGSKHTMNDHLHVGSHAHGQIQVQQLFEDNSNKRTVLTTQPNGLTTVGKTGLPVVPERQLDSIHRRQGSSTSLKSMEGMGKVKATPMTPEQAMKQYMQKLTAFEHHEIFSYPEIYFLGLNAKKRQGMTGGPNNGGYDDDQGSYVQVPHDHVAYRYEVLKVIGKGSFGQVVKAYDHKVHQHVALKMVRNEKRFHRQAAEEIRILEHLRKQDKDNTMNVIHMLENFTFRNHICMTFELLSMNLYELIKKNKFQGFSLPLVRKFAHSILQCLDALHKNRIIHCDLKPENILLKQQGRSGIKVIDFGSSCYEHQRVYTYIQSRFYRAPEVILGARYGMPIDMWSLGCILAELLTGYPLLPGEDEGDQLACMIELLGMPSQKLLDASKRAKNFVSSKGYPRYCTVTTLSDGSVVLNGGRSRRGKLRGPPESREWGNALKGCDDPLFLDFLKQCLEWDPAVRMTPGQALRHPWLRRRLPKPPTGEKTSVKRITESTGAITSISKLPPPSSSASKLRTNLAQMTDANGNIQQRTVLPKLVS
T3 sequence (Q05397 whole entry): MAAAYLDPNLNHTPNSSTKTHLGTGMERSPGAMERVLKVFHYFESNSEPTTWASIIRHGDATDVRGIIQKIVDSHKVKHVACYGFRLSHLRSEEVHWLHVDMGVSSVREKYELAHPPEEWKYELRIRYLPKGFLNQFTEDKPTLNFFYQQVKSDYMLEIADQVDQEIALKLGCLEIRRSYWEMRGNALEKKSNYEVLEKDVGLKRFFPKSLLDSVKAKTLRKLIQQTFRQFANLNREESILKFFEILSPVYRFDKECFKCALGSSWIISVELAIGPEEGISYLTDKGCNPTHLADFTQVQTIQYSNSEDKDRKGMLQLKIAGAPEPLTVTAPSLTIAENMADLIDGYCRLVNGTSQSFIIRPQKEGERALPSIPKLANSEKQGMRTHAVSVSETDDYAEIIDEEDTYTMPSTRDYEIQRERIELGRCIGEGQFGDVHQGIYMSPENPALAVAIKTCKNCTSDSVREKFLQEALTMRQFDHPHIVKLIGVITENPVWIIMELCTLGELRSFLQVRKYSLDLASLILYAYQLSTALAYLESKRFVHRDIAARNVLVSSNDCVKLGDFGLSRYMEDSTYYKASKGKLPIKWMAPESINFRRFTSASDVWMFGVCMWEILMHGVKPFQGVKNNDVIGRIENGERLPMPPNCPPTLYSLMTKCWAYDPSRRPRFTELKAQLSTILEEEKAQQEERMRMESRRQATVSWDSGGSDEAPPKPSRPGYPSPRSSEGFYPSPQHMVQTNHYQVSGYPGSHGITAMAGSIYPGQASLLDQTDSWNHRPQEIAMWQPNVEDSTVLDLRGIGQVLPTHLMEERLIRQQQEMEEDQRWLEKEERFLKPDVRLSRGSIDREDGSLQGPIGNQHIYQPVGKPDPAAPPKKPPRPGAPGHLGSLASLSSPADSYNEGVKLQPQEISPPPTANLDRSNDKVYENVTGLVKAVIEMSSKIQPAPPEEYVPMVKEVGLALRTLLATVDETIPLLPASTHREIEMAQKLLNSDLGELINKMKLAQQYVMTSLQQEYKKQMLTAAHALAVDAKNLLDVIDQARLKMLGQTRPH
Chain of CSNK1G3 (Q9Y6M4 whole entry): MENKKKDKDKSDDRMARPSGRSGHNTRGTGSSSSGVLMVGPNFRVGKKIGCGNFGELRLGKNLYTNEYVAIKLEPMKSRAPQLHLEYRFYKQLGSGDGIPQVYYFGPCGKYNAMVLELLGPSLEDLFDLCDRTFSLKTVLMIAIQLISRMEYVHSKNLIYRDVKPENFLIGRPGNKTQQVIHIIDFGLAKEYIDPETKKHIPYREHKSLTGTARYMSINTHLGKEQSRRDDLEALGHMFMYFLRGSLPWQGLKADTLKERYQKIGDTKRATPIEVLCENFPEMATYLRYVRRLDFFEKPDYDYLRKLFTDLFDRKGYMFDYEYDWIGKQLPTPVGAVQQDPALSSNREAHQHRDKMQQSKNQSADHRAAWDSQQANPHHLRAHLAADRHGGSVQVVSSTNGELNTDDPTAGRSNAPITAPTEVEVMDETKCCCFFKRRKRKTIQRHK
Chain of NEK11 (Q8NG66 whole entry): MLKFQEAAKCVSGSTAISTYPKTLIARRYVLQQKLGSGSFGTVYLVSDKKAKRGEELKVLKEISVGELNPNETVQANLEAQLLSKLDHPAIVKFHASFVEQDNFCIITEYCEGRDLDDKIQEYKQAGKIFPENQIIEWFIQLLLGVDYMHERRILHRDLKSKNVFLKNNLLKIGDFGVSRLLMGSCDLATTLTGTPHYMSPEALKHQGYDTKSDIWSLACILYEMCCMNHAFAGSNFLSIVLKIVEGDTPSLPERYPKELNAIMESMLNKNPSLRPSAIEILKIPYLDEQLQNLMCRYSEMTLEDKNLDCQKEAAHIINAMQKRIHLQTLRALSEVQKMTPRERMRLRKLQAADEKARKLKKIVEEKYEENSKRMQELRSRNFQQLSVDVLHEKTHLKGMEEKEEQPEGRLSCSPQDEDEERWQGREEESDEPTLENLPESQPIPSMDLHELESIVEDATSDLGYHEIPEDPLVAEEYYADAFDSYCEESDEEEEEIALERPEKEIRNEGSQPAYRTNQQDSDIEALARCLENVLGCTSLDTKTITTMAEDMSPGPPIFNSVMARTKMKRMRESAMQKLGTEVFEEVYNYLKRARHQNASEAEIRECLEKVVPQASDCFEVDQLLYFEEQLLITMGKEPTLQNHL
Chain of ULK3 (Q6PHR2 whole entry): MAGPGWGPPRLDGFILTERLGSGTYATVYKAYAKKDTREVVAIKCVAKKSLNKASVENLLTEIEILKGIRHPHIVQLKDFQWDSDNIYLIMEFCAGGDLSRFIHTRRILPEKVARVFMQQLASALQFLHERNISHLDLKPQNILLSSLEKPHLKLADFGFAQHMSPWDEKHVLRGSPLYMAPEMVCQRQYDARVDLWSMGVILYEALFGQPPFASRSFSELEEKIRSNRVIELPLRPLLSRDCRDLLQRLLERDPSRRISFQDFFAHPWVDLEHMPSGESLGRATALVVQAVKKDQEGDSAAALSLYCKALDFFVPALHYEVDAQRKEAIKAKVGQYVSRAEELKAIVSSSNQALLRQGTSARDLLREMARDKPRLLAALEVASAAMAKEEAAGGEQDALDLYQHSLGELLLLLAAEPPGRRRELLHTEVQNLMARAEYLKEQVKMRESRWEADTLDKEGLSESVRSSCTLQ

remaining binding at 100 µM (NEK11): 52%
remaining binding at 100 µM (KIT(V559D,T670I)): 91%
remaining binding at 100 µM (DYRK2): 93%
remaining binding at 100 µM (ULK3): 77%
remaining binding at 100 µM (PRKD2): 100%
remaining binding at 100 µM (CSNK1G3): 100%
remaining binding at 100 µM (ITK): 87%
remaining binding at 100 µM (PLK2): 68%
remaining binding at 100 µM (ERK1): 75%
remaining binding at 100 µM (KIT-autoinhibited): 74%
remaining binding at 100 µM (ACVR2B): 75%
remaining binding at 100 µM [1]: 84%
remaining binding at 100 µM (FLT3(D835Y)): 90%
remaining binding at 100 µM (CDKL5): 96%
remaining binding at 100 µM (SGK3): 81%
remaining binding at 100 µM (CSF1R-autoinhibited): 73%
remaining binding at 100 µM (MARK1): 85%
remaining binding at 100 µM (FAK): 81%
remaining binding at 100 µM (DAPK1): 65%
remaining binding at 100 µM (PKAC-beta): 84%
remaining binding at 100 µM (HCK): 76%
remaining binding at 100 µM (EGFR(T790M)): 64%
SMILES: C=C(C)[C@H]1CC=C(C)C(=O)C1 [S-carvone]
